# According to US10874104B2, “Pesticidally active pryazole derivatives” (SYNGENTA PARTICIPATIONS AG, priority 2016, dated 2020):
# Like-named read-outs stand apart in the source and are kept apart here.
# How the values were obtained:
# Type in all cases: in vivo
# [1] = test system: Diabrotica balteata (Corn Root Worm); test: Diabrotica balteata (corn root worm), sprayed maize sprouts on agar, mortality; settings: 96 h, application rate 200 ppm, L2 larvae, 4 days after infestation, read-out: mortality
# Experimental: Diabrotica balteata (Corn Root Worm):
# Maize sprouts placed onto an agar layer in 24-well microtiter plates were treated with aqueous test solutions prepared from 10′000 ppm DMSO stock solutions by spraying. After drying, the plates were infested with L2 larvae (6 to 10 per well). The samples were assessed for mortality 4 days after infestation.
# [2] = test system: Euschistus heros (Neotropical Brown Stink Bug); test: Euschistus heros (neotropical brown stink bug), feeding/contact activity, mortality; settings: 120 h, application rate 200 ppm, N2 nymphs, 5 days after infestation, read-out: mortality
# Experimental: Euschistus heros (Neotropical Brown Stink Bug): Feeding/contact activity
# Soybean leaves on agar in 24-well microtiter plates were sprayed with aqueous test solutions prepared from 10′000 ppm DMSO stock solutions. After drying the leaves were infested with N2 nymphs. The samples were assessed for mortality 5 days after infestation.
# [3] = test system: Myzus persicae (Green Peach Aphid); test: Myzus persicae (green peach aphid), feeding/contact activity, mortality; settings: 144 h, application rate 200 ppm, aphid population of mixed ages, 6 days after infestation
# Experimental: Myzus persicae (Green Peach Aphid): Feeding/Contact Activity
# (§1) Sunflower leaf discs were placed onto agar in a 24-well microtiter plate and sprayed with aqueous test solutions prepared from 10′000 ppm DMSO stock solutions. After drying, the leaf discs were infested with an aphid population of mixed ages. The samples were assessed for mortality 6 days after infestation.
# [4] = test system: Plutella xylostella (Diamond Back Moth); test: Plutella xylostella (diamond back moth), feeding/contact activity on artificial diet, mortality; settings: 120 h, application rate 200 ppm, L2 larvae on artificial diet, 5 days after infestation, read-out: mortality
# Experimental: Plutella xylostella (Diamond Back Moth): Feeding/Contact Activity
# 24-well microtiter plates with artificial diet were treated with aqueous test solutions prepared from 10′000 ppm DMSO stock solutions by pipetting. After drying, the plates were infested with L2 larvae (10 to 15 per well). The samples were assessed for mortality 5 days after infestation.
# [5] = test system: Spodoptera littoralis (Egyptian Cotton Leaf Worm); test: Spodoptera littoralis (Egyptian cotton leaf worm), feeding/contact activity, mortality; settings: 72 h, application rate 200 ppm, L1 larvae, 3 days after infestation, read-out: mortality
# Experimental: Spodoptera littoralis (Egyptian Cotton Leaf Worm): Feeding/Contact Activity
# Cotton leaf discs were placed onto agar in 24-well microtiter plates and sprayed with aqueous test solutions prepared from 10′000 ppm DMSO stock solutions. After drying the leaf discs were infested with five L1 larvae. The samples were assessed for mortality 3 days after infestation.
# [6] = test system: Tetranychus urticae (Two-Spotted Spider Mite); test: Tetranychus urticae (two-spotted spider mite), feeding/contact activity, mortality; settings: 192 h, application rate 200 ppm, mixed population (mobile stages), 8 days after infestation
# Experimental: Tetranychus urticae (Two-Spotted Spider Mite): Feeding/Contact Activity
# Bean leaf discs on agar in 24-well microtiter plates were sprayed with aqueous test solutions prepared from 10′000 ppm DMSO stock solutions. After drying the leaf discs were infested with a mite population of mixed ages. The samples were assessed for mortality on mixed population (mobile stages) 8 days after infestation.
# [7] = test system: Thrips tabaci (Onion Thrips); test: Thrips tabaci (onion thrips), feeding/contact activity, mortality; settings: 144 h, application rate 200 ppm, thrips population of mixed ages, 6 days after infestation, read-out: mortality
# Experimental: Thrips tabaci (Onion Thrips): Feeding/Contact Activity
# as §1, with “on” for “onto”, “in” for “in a”, “plates” for “plate”, “drying” for “drying,”, “a thrips” for “an aphid”
# [8] = test system: Plutella xylostella (Diamond Back Moth, Larvicide L-2/3); test: Biological comparison: insecticidal activity against Plutella xylostella, larvicide L-2/3, sprayed Chinese cabbage plants; settings: 120 h
# Experimental: Biological Comparison Data:
# Compound A is disclosed in WO2014/122083 as example (Ic-2) (p. 82, Table 3). The activities of compounds A is compared with the activities of compound 41 and 42, according to the present invention. The tests are carried out at different concentrations (ppm).
# a) Insecticidal Activity Against Plutella xylostella (Diamond Back Moth, Larvicide L-2/3, Feeding/Contact)
# Chinese cabbage plants are sprayed with diluted test solutions in an application chamber. 1 day after treatment, excised leaves are placed in petri dishes and infested with 10 L2 (2 replicates). Samples are checked 5 days after infestation for mortality, feeding behavior, and growth regulation.
# [9] = concentration 0.0125 ppm, L2 larvae, 5 days after infestation, read-out: Mortality (%)
# [10] = concentration 0.05 ppm, L2 larvae, 5 days after infestation, read-out: Mortality (%)
# [11] = concentration 0.2 ppm, L2 larvae, 5 days after infestation, read-out: Mortality (%)
# [12] = concentration 0.8 ppm, L2 larvae, 5 days after infestation, read-out: Mortality (%)
Compound,mortality at 200 ppm [1] [%],mortality at 200 ppm [2] [%],mortality at 200 ppm [3] [%],mortality at 200 ppm [4] [%],mortality at 200 ppm [5] [%],mortality at 200 ppm [6] [%],mortality at 200 ppm [7] [%],"mortality at 0.0125 ppm [8, 9] [%]","mortality at 0.05 ppm [8, 10] [%]","mortality at 0.2 ppm [8, 11] [%]","mortality at 0.8 ppm [8, 12] [%]",mortality at 0.0125 ppm [8] [%],mortality at 0.05 ppm [8] [%],mortality at 0.2 ppm [8] [%],mortality at 0.8 ppm [8] [%]
"C=Cc1c(C(F)(F)C(F)(F)F)nn(C)c1-n1cc(-c2ccc(Cl)c(C(=O)NC3CC3)c2)cn1 [Compound 16, 2-Chloro-N-cyclopropyl-5-[1-[2-methyl-5-(1,1,2,2,2-pentafluoroethyl)-4-vinyl-pyrazol-3-yl]pyrazol-4-yl]benzamide]",≥ 80,≥ 80,≥ 80,≥ 80,≥ 80,≥ 80,≥ 80,,,,,,,,
Cn1nc(C(F)(F)C(F)(F)F)c(SC2CC2)c1-n1cc(-c2ccc(Cl)c(C(=O)NC3(C#N)CC3)c2)cn1 [Compound 19],≥ 80,≥ 80,≥ 80,≥ 80,≥ 80,≥ 80,≥ 80,,,,,,,,
Cn1nc(C(F)(F)C(F)(F)F)c(SC2CC2)c1-n1cc(-c2ccc(Cl)c(C(=O)NC3CC3)c2)cn1 [Compound 20],≥ 80,≥ 80,≥ 80,≥ 80,≥ 80,≥ 80,≥ 80,,,,,,,,
Cn1nc(C(F)(F)C(F)(F)F)c(OC(F)F)c1-n1cc(-c2cnc(Cl)c(C(=O)NC3CC3)c2)cn1 [Compound 22],≥ 80,≥ 80,≥ 80,≥ 80,≥ 80,≥ 80,≥ 80,,,,,,,,
Cn1nc(C(F)(F)C(F)(F)F)c([S+]([O-])C2CC2)c1-n1cc(-c2ccc(Cl)c(C(=O)NC3CC3)c2)cn1 (stereo not shown) [Compound 34],≥ 80,≥ 80,≥ 80,≥ 80,≥ 80,≥ 80,≥ 80,,,,,,,,
Cn1nc(C(F)(F)C(F)(F)F)c([S+]([O-])C2CC2)c1-n1cc(-c2ccc(Cl)c(C(=O)NC3(C#N)CC3)c2)cn1 (stereo not shown) [Compound 36],≥ 80,≥ 80,≥ 80,≥ 80,≥ 80,≥ 80,≥ 80,,,,,,,,
CN(C(=O)c1cc(-c2cnn(-c3c(OC(F)F)c(C(F)(F)C(F)(F)F)nn3C)c2)ccc1Cl)C1(C#N)CC1 [Compound 41],≥ 80,≥ 80,,≥ 80,≥ 80,≥ 80,≥ 80,90,100,100,100,,,,
CCN(C(=O)c1cc(-c2cnn(-c3c(OC(F)F)c(C(F)(F)C(F)(F)F)nn3C)c2)ccc1Cl)C1(C#N)CC1 [Compound 42],≥ 80,≥ 80,≥ 80,≥ 80,≥ 80,≥ 80,≥ 80,95,100,100,100,,,,
"Cn1nc(C(F)(F)C(F)(F)F)c(C(F)(F)F)c1-n1cc(-c2ccc(Cl)c(C(=O)NC3(C#N)CC3)c2)cn1 [Cpd A, reference compound]",,,,,,,,,,,,35,85,100,100
